The record followed here is patent US10377717B2, “Farnesoid X receptor agonists and uses thereof” (Metacrine, Inc., priority 2015, dated 2019).

The structures appear in SMILES notation.

The target in this experiment is hFXR (Homo sapiens (Human), UniProt Q96RI1). The experiment in a line: In Vitro FXR Assay (TK), luciferase reporter in transfected CV-1 cells. The note with it: TK-ECRE-luc reporter, hFXR/hRXR, 18 hrs, maximum efficacy <25% of Fexaramine control classified as '+'. Format: cell-based. On the procedure:
CV-1 cells were seeded at a density of 2,000,000 cells in a T175 flask with DMEM+10% charcoal double-stripped FBS and incubated at 37° C. in 5% CO2 for 18 h (O/N).
After 18 h of incubation, the medium in the T175 flask was changed with fresh DMEM+10% charcoal super-stripped serum. In a polypropylene tube, 2500 μL OptiMEM (Life Technologies, Cat #31985-062) was combined with expression plasmids for hFXR, hRXR, TK-ECRE-luc and pCMX-YFP. The tube was then briefly vortexed and incubated at room temperature for 5 minutes. Transfection reagent (X-tremeGENE HP from Roche, Cat #06 366 236 001) was added to the OptiMEM/plasmid mixture vortexed and incubated at room temperature for 20 minutes. Following incubation, the transfection reagent/DNA mixture complex was added to cells in the T175 flask and the cells were incubated at 37° C. in 5% CO2 for 18 h (O/N).
Compounds were serially diluted in DMSO and added to transfected CV-1 cells. The cells were then incubated for 18 hrs. The next day cells were lysed and examined for luminescence.

hFXR, sequence (Q96RI1 whole entry): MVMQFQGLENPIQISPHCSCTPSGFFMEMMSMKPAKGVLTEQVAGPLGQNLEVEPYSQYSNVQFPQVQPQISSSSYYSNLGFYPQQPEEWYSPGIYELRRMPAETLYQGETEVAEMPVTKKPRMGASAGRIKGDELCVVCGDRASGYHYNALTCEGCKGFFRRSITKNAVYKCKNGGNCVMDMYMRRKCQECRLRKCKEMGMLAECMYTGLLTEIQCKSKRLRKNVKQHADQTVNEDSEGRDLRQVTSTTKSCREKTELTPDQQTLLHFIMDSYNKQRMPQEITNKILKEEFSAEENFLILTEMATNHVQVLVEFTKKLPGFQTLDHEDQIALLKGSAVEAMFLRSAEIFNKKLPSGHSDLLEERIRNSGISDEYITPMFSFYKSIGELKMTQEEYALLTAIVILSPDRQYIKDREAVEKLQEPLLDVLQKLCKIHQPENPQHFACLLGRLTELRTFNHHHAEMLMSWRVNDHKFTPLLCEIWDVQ
hFXR, sequence (P19793 whole entry partner): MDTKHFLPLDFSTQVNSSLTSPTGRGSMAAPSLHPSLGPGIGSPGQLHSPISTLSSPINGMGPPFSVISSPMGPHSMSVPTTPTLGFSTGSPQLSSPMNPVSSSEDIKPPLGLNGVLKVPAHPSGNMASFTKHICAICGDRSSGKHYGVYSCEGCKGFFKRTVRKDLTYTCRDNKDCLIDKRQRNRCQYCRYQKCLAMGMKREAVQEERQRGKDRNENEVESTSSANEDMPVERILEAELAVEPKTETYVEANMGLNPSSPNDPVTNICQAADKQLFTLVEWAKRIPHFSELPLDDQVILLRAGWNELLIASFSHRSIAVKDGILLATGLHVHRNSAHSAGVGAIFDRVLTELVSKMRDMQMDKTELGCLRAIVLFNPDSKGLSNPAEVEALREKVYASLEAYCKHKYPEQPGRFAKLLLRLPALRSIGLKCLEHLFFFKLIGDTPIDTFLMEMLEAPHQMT

Regarding `COC(=O)c1ccc2c(N(Cc3ccc(-c4ccc(C#N)c(Cl)c4)cc3)C(=O)CC(C)(C)C)nccc2c1` [Compound 31, Methyl 1-(N-((3′-chloro-4′-cyano-[1,1′-biphenyl]-4-yl)methyl)-3,3-dimethylbutanamido)isoquinoline-6-carboxylate], the concentration giving a half-maximal response (EC50) is ≤ 1000 nM.

`COC(=O)c1ccc2c(N(Cc3ccc(-c4ccc(Cl)c(C#N)c4)cc3)C(=O)CC(C)(C)C)nccc2c1` [Compound 32, Methyl 1-(N-((4′-chloro-3′-cyano-[1,1′-biphenyl]-4-yl)methyl)-3,3-dimethylbutanamido)isoquinoline-6-carboxylate]: the EC50 lay within 1000 to 10000 nM.

In turn, `COC(=O)c1ccc2c(N(Cc3ccc(-c4ccc(C(F)(F)F)nc4)cc3)C(=O)CC(C)(C)C)nccc2c1` [Compound 33, Methyl 1-(3,3-dimethyl-N-(4-(6-(trifluoromethyl)pyridin-3-yl)benzyl)butanamido)isoquinoline-6-carboxylate] showed an EC50 of 1000 to 10000 nM.

On to `COC(=O)c1ccc2c(N(Cc3ccc(-c4ccc5c(c4)OC(F)(F)O5)cc3)C(=O)CC(C)(C)C)nccc2c1` [Compound 34, Methyl 1-(N-(4-(2,2-difluorobenzo[d][1,3]dioxol-5-yl)benzyl)-3,3-dimethylbutanamido)isoquinoline-6-carboxylate], for which the EC50 was ≤ 1000 nM.

On to `COC(=O)c1ccc2c(N(Cc3ccc(-c4cnc(OC)c(F)c4)cc3)C(=O)CC(C)(C)C)nccc2c1` [Compound 35, Methyl 1-(N-(4-(5-fluoro-6-methoxypyridin-3-yl)benzyl)-3,3-dimethylbutanamido)isoquinoline-6-carboxylate], for which the EC50 is ≤ 1000 nM.

Take `COC(=O)c1ccc2c(N(Cc3ccc(-c4cnc(OC)c(Cl)c4)cc3)C(=O)CC(C)(C)C)nccc2c1` [Compound 36, Methyl 1-(N-(4-(5-chloro-6-methoxypyridin-3-yl)benzyl)-3,3-dimethylbutanamido)isoquinoline-6-carboxylate]: the concentration for a half-maximal effect (EC50) was ≤ 1000 nM.

`COC(=O)c1ccc2c(N(Cc3ccc(-c4cnc(OC)c(C)c4)cc3)C(=O)CC(C)(C)C)nccc2c1` [Compound 37, Methyl 1-(N-(4-(6-methoxy-5-methylpyridin-3-yl)benzyl)-3,3-dimethylbutanamido)isoquinoline-6-carboxylate]: the EC50 was ≤ 1000 nM.

In the case of `COC(=O)c1ccc2c(N(Cc3ccc(-c4ccc(N(C)C)nc4)cc3)C(=O)CC(C)(C)C)nccc2c1` [Compound 38, Methyl 1-(N-(4-(6-(dimethylamino)pyridin-3-yl)benzyl)-3,3-dimethylbutanamido)isoquinoline-6-carboxylate], the concentration for a half-maximal effect (EC50) is ≤ 1000 nM.

`COC(=O)c1ccc2c(N(Cc3ccc(-c4ccc(C)nc4)cc3)C(=O)CC(C)(C)C)nccc2c1` [Compound 39, Methyl 1-(3,3-dimethyl-N-(4-(6-methylpyridin-3-yl)benzyl)butanamido)isoquinoline-6-carboxylate]: the EC50 lay within 1000 to 10000 nM.

For `COC(=O)c1ccc2c(N(Cc3ccc(-c4ccc(C5CC5)cc4)cc3)C(=O)CC(C)(C)C)nccc2c1` [Compound 40, Methyl 1-(N-((4′-cyclopropyl-[1,1′-biphenyl]-4-yl)methyl)-3,3-dimethylbutanamido)isoquinoline-6-carboxylate], the EC50 is ≤ 1000 nM.

In the case of `COC(=O)c1ccc2c(N(Cc3ccc(-c4ccc(OC(F)(F)F)c(Cl)c4)cc3)C(=O)CC(C)(C)C)nccc2c1` [Compound 41, Methyl 1-(N-((3′-chloro-4′-(trifluoromethoxy)-[1,1′-biphenyl]-4-yl)methyl)-3,3-dimethylbutanamido)isoquinoline-6-carboxylate], the half-maximal effective concentration (EC50) is ≤ 1000 nM.

For the compound `COC(=O)c1ccc2c(N(Cc3ccc(-c4ccc(C#N)c(C)c4)cc3)C(=O)CC(C)(C)C)nccc2c1` [Compound 42, Methyl 1-(N-((4′-cyano-3′-methyl-[1,1′-biphenyl]-4-yl)methyl)-3,3-dimethylbutanamido)isoquinoline-6-carboxylate], the 50% effective concentration (EC50) is ≤ 1000 nM.

`COC(=O)c1ccc2c(N(Cc3ccc(-c4ccc(CO)cc4)cc3)C(=O)CC(C)(C)C)nccc2c1` [Compound 43, Methyl 1-(N-((4′-(hydroxymethyl)-[1,1′-biphenyl]-4-yl)methyl)-3,3-dimethylbutanamido)isoquinoline-6-carboxylate] showed an EC50 of 1000 to 10000 nM.

In the case of `COC(=O)c1ccc2c(N(Cc3ccc(-c4ccc5c(ccn5C)c4)cc3)C(=O)CC(C)(C)C)nccc2c1` [Compound 44, Methyl 1-(3,3-dimethyl-N-(4-(1-methyl-1H-indol-5-yl)benzyl)butanamido)isoquinoline-6-carboxylate], the EC50 was ≤ 1000 nM.

`COC(=O)c1ccc2c(N(Cc3ccc(-c4ccc(OC)cc4)cc3)C(=O)CC(C)(C)C)nccc2c1` [Compound 45, Methyl 1-(N′-((4′-methoxy-[1,1′-biphenyl]-4-yl)methyl)-3,3-dimethylbutanamido)isoquinoline-6-carboxylate]: the EC50 was ≤ 1000 nM.

Turning to `COC(=O)c1ccc2c(N(Cc3ccc(-c4ccc5c(c4)CCO5)cc3)C(=O)CC(C)(C)C)nccc2c1` [Compound 46, Methyl 1-(N′-(4-(2,3-dihydrobenzofuran-5-yl)benzyl)-3,3-dimethylbutanamido)isoquinoline-6-carboxylate], the EC50 is ≤ 1000 nM.

For the compound `COC(=O)c1ccc2c(N(Cc3ccc(-c4ccc5c(c4)OCC5)cc3)C(=O)CC(C)(C)C)nccc2c1` [Compound 47, Methyl 1-(N-(4-(2,3-dihydrobenzofuran-6-yl)benzyl)-3,3-dimethylbutanamido)isoquinoline-6-carboxylate], the EC50 was ≤ 1000 nM.

Regarding `COC(=O)c1ccc2c(N(Cc3ccc(-c4ccc5c(c4)OCCO5)cc3)C(=O)CC(C)(C)C)nccc2c1` [Compound 48, Methyl 1-(N-(4-(2,3-dihvdrobenzo[b][1,4]dioxin-6-yl)benzyl)-3,3-dimethylbutanamido)isoquinoline-6-carboxylate], the EC50 is ≤ 1000 nM.

With `COC(=O)c1ccc2c(N(Cc3ccc(-c4cnc5c(ccn5C)c4)cc3)C(=O)CC(C)(C)C)nccc2c1` [Compound 49, Methyl 1-(3,3-dimethyl-N-(4-(1-methyl-1H-pyrrolo[2,3-b]pyridin-5-yl)benzyl)butanamido)isoquinoline-6-carboxylate], the EC50 is ≤ 1000 nM.

For the compound `COC(=O)c1ccc2c(N(Cc3ccc(-c4ccc5sc(C)nc5c4)cc3)C(=O)CC(C)(C)C)nccc2c1` [Compound 50, Methyl 1-(3,3-dimethyl-N-(4-(2-methylbenzo[d]thiazol-5-yl)benzyl)butanamido)isoquinoline-6-carboxylate], the EC50 fell in the range of 1000 to 10000 nM.

For the compound `COC(=O)c1ccc2c(N(Cc3ccc(-c4ccc5c(c4)CCN5C(=O)OC(C)(C)C)cc3)C(=O)CC(C)(C)C)nccc2c1` [Compound 51, Methyl 1-(N-(4-(1-(tert-butoxycarbonyl)indolin-5-yl)benzyl)-3,3-dimethylbutanamido)isoquinoline-6-carboxylate], the EC50 is ≥ 10000 nM.

On to `CCOc1ccc(-c2ccc(CN(C(=O)CC(C)(C)C)c3nccc4cc(C(=O)OC)ccc34)cc2)cc1` [Compound 52, Methyl 1-(N-((4′-ethoxy-[1,1′-biphenyl]-4-yl)methyl)-3,3-dimethylbutanamido)isoquinoline-6-carboxylate], for which the EC50 lay within 1000 to 10000 nM.

Consider `CCc1ccc(-c2ccc(CN(C(=O)CC(C)(C)C)c3nccc4cc(C(=O)OC)ccc34)cc2)cc1` [Compound 53, Methyl 1-(N-((4′-ethyl-[1,1′-biphenyl]-4-yl)methyl)-3,3-dimethylbutanamido)isoquinoline-6-carboxylate], for which the EC50 was ≤ 1000 nM.

Turning to `COC(=O)c1ccc2c(N(Cc3ccc(-c4ccc(F)c(OC)c4)cc3)C(=O)CC(C)(C)C)nccc2c1` [Compound 54, Methyl 1-(N-((4′-fluoro-3′-methoxy-[1,1′-biphenyl]-4-yl)methyl)-3,3-dimethylbutanamido)isoquinoline-6-carboxylate], the EC50 lay in the range of 1000 to 10000 nM.

`COC(=O)c1ccc2c(N(Cc3ccc(-c4ccc(C)c(Cl)c4)cc3)C(=O)CC(C)(C)C)nccc2c1` [Compound 55, Methyl 1-(N-((3′-chloro-4′-methyl-[1,1′-biphenyl]-4-yl)methyl)-3,3-dimethylbutanamido)isoquinoline-6-carboxylate]: the EC50 was ≤ 1000 nM.

In the case of `COC(=O)c1ccc2c(N(Cc3ccc(-c4ccc(C(F)F)cc4)cc3)C(=O)CC(C)(C)C)nccc2c1` [Compound 56, Methyl 1-(N-((4′-(difluoromethyl)-[1,1′-biphenyl]-4-yl)methyl)-3,3-dimethylbutanamido)isoquinoline-6-carboxylate], the concentration for a half-maximal effect (EC50) was ≤ 1000 nM.

In the case of `COC(=O)c1ccc2c(N(Cc3ccc(-c4ccc(OC(F)F)cc4)cc3)C(=O)CC(C)(C)C)nccc2c1` [Compound 57, Methyl 1-(N-((4′-(difluoromethoxy)-[1,1′-biphenyl]-4-yl)methyl)-3,3-dirnethylbutanamido)isoquinoline-6-carboxylate], the EC50 was 1000 to 10000 nM.

For `COCc1ccc(-c2ccc(CN(C(=O)CC(C)(C)C)c3nccc4cc(C(=O)OC)ccc34)cc2)cc1` [Compound 58, Methyl 1-(N-((4′-(methoxymethyl)-[1,1′-biphenyl]-4-yl)methyl)-3,3-dimethylbutanamido)isoquinoline-6-carboxylate], the EC50 is ≤ 1000 nM.

The compound `COCCOc1ccc(-c2ccc(CN(C(=O)CC(C)(C)C)c3nccc4cc(C(=O)OC)ccc34)cc2)cc1` [Compound 59, Methyl 1-(N-((4′-(2-methoxyethoxy)-[1,1-biphenyl]-4-yl)methyl)-3,3-dimethylbutanamido)isoquinoline-6-carboxylate] displayed an EC50 of 1000 to 10000 nM.
